Assay results as given in US4839374A, “4-((Bicyclic heterocyclyl)-methyl and -hetero)-piperidines” (Janssen Pharmaceutica, N.V., priority 1987, dated 1989).

Test system: compound 48/80-induced lethality
Assay: Protection of rats from compound 48/80-induced lethality
Assay type: in vivo, rats of an inbred Wistar strain
Conditions: Rattus norvegicus, 4 h, read-out: Compound 48/80 lethality test in rats ED50, s.c. or p.o. 1 h before compound 48/80 0.5 mg/kg i.v.; protection of 50% of animals, survival after 4 hours
Procedure: Protection of rats from compound 48/80-induced lethality
The protection from compound 48/80-induced lethal circulatory collapse appears to be a simple way of evaluating quantitatively the antihistaminic activity of test compounds. Male rats of an inbred Wistar strain, weighing 240-260 g were used in the experiment. After overnight starvation the rats were transferred to conditioned laboratories (temp.=21±1° C., relative humidity=65+5%). The rats were treated subcutaneously or orally with a test compound or with the solvent (NaCl solution, 0.9%). […] Survival after 4 hours is therefore considered to be a safe criterion of a protective effect of drug administration. The ED50 -values of the compounds of formula (I) are listed in the first column of tables 1 to 4. Said ED50 -values are the values in mg/kg body weight at which the tested compounds protect 50% of the tested animals against compound 48/80-induced lethality. The compounds of formula (I) and the pharmaceutically acceptable acid addition salts thereof are also potent serotonin-antagonists. The potency of the subject compounds as serotonin-antagonists is clearly evidenced by the results obtained in the following tests wherein the antagonistic activity of the subject compounds on the effect of serotonin is examined.

SMILES	ED50 [mg/kg]
O=c1[nH]c2ccccc2n1CCCN1CCC(Cc2nc3ccccc3n2Cc2ccco2)CC1 [Compound 139, 1-[3-[4-[[1-(2-furanylmethyl)-1H-benzimidazol-2-yl]methyl]-1-piperidinyl]propyl]-1,3-dihydro-2H-benzimidazol-2-one]	0.08
O=c1[nH]c2ccccc2n1CCCN1CCC(Cc2nc3cccnc3n2Cc2ccco2)CC1 [Compound 152]	0.04
Cc1nc2scc(C)n2c(=O)c1CCN1CCC(Cc2nc3ccccc3n2Cc2ccco2)CC1 [Compound 216]	0.04
Fc1ccc(Cn2c(CC3CCN(CCNc4ncnc5[nH]cnc45)CC3)nc3ccccc32)cc1 [Compound 370]	0.02
CNc1ccccc1C(=O)NCCN1CCC(Cc2nc3cccnc3n2Cc2ccc(F)cc2)CC1 [Compound 470]	0.04
c1coc(Cn2c(CC3CCN(CCNc4nccs4)CC3)nc3cccnc32)c1 [Compound 352, 4-[[3-(2-furanylmethyl)-3H-imidazo[4,5-b]pyridin-2-yl]methyl]-N-(2-thiazolyl)-1-piperidineethanamine]	0.01
CC(C)N1CCC(Cc2nc3ccccc3n2Cc2ccc(F)cc2)CC1 [Compound 83]	0.01
CN(CCN1CCC(Cc2nc3ccccc3n2Cc2ccc(F)cc2)CC1)Cc1ccccc1 [Compound 512]	0.08
Fc1ccc(Cn2c(CC3CCN(CCNc4nc5ccccc5[nH]4)CC3)nc3cccnc32)cc1 [Compound 329, N-[2-[4-[[3-[(4-fluorophenyl)methyl]-3H-imidazo[4,5-b]pyridin-2-yl]methyl]-1-piperidinyl]ethyl]1H-benzimidazol-2-amine]	0.31
O=c1[nH]c2ccccc2c(=O)n1CCCN1CCC(Cc2nc3cccnc3n2Cc2ccco2)CC1 [Compound 169]	0.02
Fc1ccc(Cn2c(CC3CCN(CCOCc4ccccn4)CC3)nc3cccnc32)cc1 [Compound 394, 3-[(4-fluorophenyl)methyl]-2-[[1-[2-(2-pyridinylmethoxy)ethyl]-4-piperidinyl]-methyl]-3H-imidazol[4,5-b]pyridine]	0.02
Fc1ccc(Cn2c(SC3CCN(CCNc4ncccn4)CC3)nc3ccccc32)cc1 [Compound 333, N-[2-[4-[[1-[(4-fluorophenyl)methyl]-1H-benzimidazol-2-yl]thio]-1-piperidinyl]ethyl]-2-pyrimidinamine]	0.04
N#CCN1CCC(Cc2nc3cccnc3n2Cc2ccc(F)cc2)CC1 [Compound 290]	0.08
Fc1ccc(Cn2c(CC3CCN(Cc4ccccc4)CC3)nc3cccnc32)cc1 [Compound 8, 3-[(4-fluorophenyl)methyl]-2-[[1-(phenylmethyl)-4-piperidinyl]-methyl]-3H-imidazo[4,5-b]pyridine]	0.04
c1cnc(NCCN2CCC(Cc3nc4cccnc4n3Cc3ccco3)CC2)nc1 [Compound 339]	0.01
CC1(C)Nc2ccccc2C(=O)N1CCN1CCC(Cc2nc3cccnc3n2Cc2ccccn2)CC1 [Compound 479, 2,3-dihydro-2,2-dimethyl-3-[2-[4-[[3-(2-pyridinylmethyl)-3H-imidazo[4,5-b]-pyridin-2-yl]methyl]-1-piperidinyl]ethyl]-4(1H)-quinazolinone]	0.04
CN1CCC(Cc2nc3ccccc3n2Cc2ccccc2)CC1 [Compound 93]	0.04
Cc1nc2n(c(=O)c1CCN1CCC(Cc3nc4ccccc4n3Cc3ccco3)CC1)CCS2 [Compound 163]	0.02
COc1ccc(CCN2CCC(Cc3nc4ccccc4n3Cc3cnccn3)CC2)cc1 [Compound 524, 2-[[1-[2-(4-methoxyphenyl)ethyl]-4-piperidinyl]methyl]-1-(2-pyrazinylmethyl)-1H-benzimidazole]	0.16
O=c1[nH]c2ccccc2n1CCCN1CCC(Cc2nc3cccnc3n2Cc2cccs2)CC1 [Compound 215]	0.08

SMILES	ED50 [mg/kg]
Cn1cnc2c(NCCN3CCC(Cc4nc5ccccc5n4Cc4ccc(F)cc4)CC3)ncnc21 [Compound 369]	0.04
O=c1[nH]c2ccccc2c(=O)n1CCCCN1CCC(Cc2nc3cccnc3n2Cc2ccco2)CC1 [Compound 491, 3-[4-[4-[[3-(2-furanylmethyl)-3H-imidazo[4,5-b]pyridin-2-yl]methyl]-1-piperidinyl]butyl]-2,4-(1H,3H)-quinazolinedione]	0.16
Fc1ccc(Cn2c(CC3CCN(CCSc4ccccc4)CC3)nc3cccnc32)cc1 [Compound 147, 3-[(4-fluorophenyl)methyl]-2-[[1-[2-(phenylthio)ethyl]-4-piperidinyl]methyl]-3H-imidazo[4,5-b]pyridine]	0.08
CC(=O)N(C)c1ccccc1C(=O)NCCN1CCC(Cc2nc3ccccc3n2Cc2ccco2)CC1 [Compound 511]	0.16
N#CCN1CCC(Cc2nc3ccccc3n2Cc2ccccc2)CC1 [Compound 297]	0.08
OCCN1CCC(Sc2nc3ccccc3n2Cc2ccc(F)cc2)CC1 [Compound 104, 4-[[1-[(4-fluorophenyl)-methyl]-1H-benzimidazol-2-yl]thio]-1-piperidineethanol]	0.08
Cc1ccc(Cn2c(CC3CCN(CCNc4nccs4)CC3)nc3ccccc32)cc1 [Compound 364]	0.04
COc1ccc(Cn2c(CC3CCN(CCNc4nccs4)CC3)nc3cccnc32)cc1 [Compound 365]	0.08
Fc1ccc(Cn2c(OC3CCN(CCOc4ncccn4)CC3)nc3ccccc32)cc1 [Compound 390, 1-[(4-fluorophenyl)methyl]-2-[[1-[2-(2-pyrimidinyloxy)ethyl]-4-piperidinyl]oxy]-1H-benzimidazole]	0.04
COc1ccc(CCN2CCC(Cc3nc4ccccc4n3Cc3ccccc3F)CC2)cc1 [Compound 515, 1-[(2-fluorophenyl)methyl]-2-[[1-[2-(4-methoxyphenyl)ethyl]-4-piperidinyl]-methyl]-1H-benzimidazole]	0.16
CC(C)NC(=O)CN1CCC(Cc2nc3ccccc3n2Cc2ccc(F)cc2)CC1 [Compound 134]	0.04
O=c1oc2ccccc2cc1CCN1CCC(Cc2nc3cccnc3n2Cc2ccco2)CC1 [Compound 174]	0.01
COc1ccc(Cn2c(CC3CCN(CCCn4c(=O)[nH]c5ccccc54)CC3)nc3ccccc32)cc1 [Compound 154]	0.08
CCOC(=O)N1CCC(Cc2nc3ccccc3n2Cc2cccs2)CC1 [Compound 59, ethyl 4-[[1-(2-thienylmethyl)-1H-benzimidazol-2-yl]methyl]-1-piperidinecarboxylate]	0.02
Nc1ccccc1C(=O)NCCN1CCC(Oc2nc3ccccc3n2Cc2ccc(F)cc2)CC1 [Compound 480, 2-amino-N-[2-[4-[[1-[(4-fluorophenyl)methyl]-1H-benzimidazol-2-yl]oxy]-1-piperidinyl]ethyl]benzamide]	0.02
O=c1[nH]c2ccccc2n1CCCN1CCC(Oc2nc3ccccc3n2Cc2ccc(F)cc2)CC1 [Compound 140, 1-[3-[4-[[1-[(4-fluorophenyl)methyl]-1H-benzimidazol-2-yl]oxy]-1-piperidinyl]propyl]-1,3-dihydro-2H-benzimidazol-2-one]	0.04
O=c1[nH]c2ccccc2n1CCCN1CCC(Sc2nc3ccccc3n2Cc2ccc(F)cc2)CC1 [Compound 255]	0.16
O=c1[nH]c2ccccc2c(=O)n1CCN1CCC(Cc2nc3cccnc3n2Cc2ccco2)CC1 [Compound 171]	0.08
CCn1nnn(CCN2CCC(Cc3nc4ccccc4n3Cc3ccc(F)cc3)CC2)c1=O [Compound 123]	0.01
